SMILES strings stand for the structures.

As for `*C(=O)c1ccc2c(c1)C(=O)N(c1cccc(P(=O)(c3cccc(N4C(=O)c5ccc(*)cc5C4=O)c3)c3cc(C(F)(F)F)cc(C(F)(F)F)c3)c1)C2=O` (repeat unit), the glass transition temperature stood at 243.00 °C. Turning to `*C(=O)c1ccc2c(c1OCc1ccccc1[N+](=O)[O-])C(=O)N(c1ccc(Oc3ccc(N4C(=O)c5ccc(*)c(OCc6ccccc6[N+](=O)[O-])c5C4=O)cc3)cc1)C2=O` (repeat unit), the glass transition temperature came to 198.00 °C.

Consider `*CC(COc1ccc(C(C)(C)c2ccc(O*)cc2)cc1)OC(=O)c1ccccc1Cl` (repeat unit), for which the glass transition temperature amounted to 66.00 °C. `*CC(O)CN(CC(O)COc1ccc(C(C)(C)c2ccc(O*)cc2)cc1)c1ccc(C#N)cc1` (repeat unit) had a glass transition temperature of 100.00 °C. In the case of `*CC(O)CN(Cc1ccccc1)CC(O)COc1ccc(C(C)(C)c2ccc(O*)cc2)cc1` (repeat unit), the glass transition temperature came out at 94.2 °C.

In the case of `*CC(O)COC(=O)C1CCC(C(=O)OCC(O)COc2ccc(C(C)(C)c3ccc(O*)cc3)cc2)CC1` (repeat unit), the glass transition temperature is 70.00 °C. `*CC(O)COC(=O)CCCCC(=O)OCC(O)COc1ccc(C(C)(C)c2ccc(O*)cc2)cc1` (repeat unit) showed a glass transition temperature of 34.00 °C. As to `*CC(O)COc1ccc(C(C)(C)c2ccc(O*)cc2)cc1` (repeat unit), the glass transition temperature is 91.00 °C. The compound `*CC(O)COc1ccc(C(C)(C)c2ccc(OCC(O)COc3ccc(C4(c5ccc(O*)cc5)c5ccccc5-c5ccccc54)cc3)cc2)cc1` (repeat unit) showed a glass transition temperature of 161.00 °C. For `*CC(O)COc1ccc(C(C)(C)c2ccc(OCC(O)COc3ccc(NC(=O)CCCCCC(=O)Nc4ccc(O*)cc4)cc3)cc2)cc1` (repeat unit) the value was 116.00 °C.

In the case of `*CC(O)COc1ccc(C(C)(C)c2ccc(OCC(O)COc3ccc(S(=O)(=O)c4ccc(O*)c(C)c4)cc3C)cc2)cc1` (repeat unit), the glass transition temperature is 117.50 °C. `*CC(O)COc1ccc(C(C)(C)c2ccc(OCC(O)COc3cccc(C(=O)Nc4cccc(O*)c4)c3)cc2)cc1` (repeat unit) returned a glass transition temperature of 117.00 °C. Compound `*CC(O)COc1ccc(C(C)(C)c2ccc(OCC(O)COc3cccc(NC(=O)CCCCC(=O)Nc4cccc(O*)c4)c3)cc2)cc1` (repeat unit) yielded a glass transition temperature of 103.00 °C. `*CC(O)COc1ccc(C(C)(C)c2ccc(OCC(O)COc3cccc(NC(=O)CCCCCC(=O)Nc4cccc(O*)c4)c3)cc2)cc1` (repeat unit) gave a glass transition temperature of 107.00 °C. In the case of `*CC(O)COc1ccc(C(C)(CC)c2ccc(O*)cc2)cc1` (repeat unit), the glass transition temperature turned out to be 95.00 °C. Regarding `*CC(O)COc1ccc(S(=O)(=O)c2ccc(OCC(O)COc3ccc(S(=O)(=O)c4ccc(O*)c(C)c4)cc3C)cc2)cc1` (repeat unit), the glass transition temperature turned out to be 142.50 °C. `*CCCCCCCCOc1ccc(C(c2ccc(O*)cc2)(C(F)(F)F)C(F)(F)F)cc1` (repeat unit) registered a glass transition temperature of 27.80 °C.

`*COc1ccc(C(C)(C)c2ccc(O*)cc2)cc1` (repeat unit) showed a glass transition temperature of 90.00 °C.

Compound `*OP(=O)(Oc1ccc(C(C)(C)c2ccc(*)cc2)cc1)Oc1c(Cl)c(Cl)c(Cl)c(Cl)c1Cl` (repeat unit) had a glass transition temperature of 130.00 °C. For `*OP(=O)(Oc1ccc(C(C)(C)c2ccc(*)cc2)cc1)Oc1c(Cl)cccc1Cl` (repeat unit) the value was 96.00 °C; for `*OP(=O)(Oc1ccccc1)Oc1ccc(C(C)(C)c2ccc(*)cc2)cc1` (repeat unit), 74.50 °C; for `*OS(=O)(=O)c1cccc(S(=O)(=O)Oc2ccc(C(C)(C)c3ccc(*)cc3)cc2)c1` (repeat unit), 124.00 °C.

The compound `*O[Si](C)(C)OC(CCl)COc1ccc(C(C)(C)c2ccc(OCC(*)CCl)cc2)cc1` (repeat unit) yielded a glass transition temperature of 24.00 °C. Take `*O[Si](Oc1ccc(C2(c3ccc(*)c(C)c3)c3ccccc3-c3ccccc32)cc1C)(c1ccccc1)c1ccccc1` (repeat unit): the glass transition temperature came out at 171.00 °C. Regarding `*Oc1ccc(-c2ccc(-c3ccc(Oc4ccc(C(C)(C)c5ccc(*)cc5)cc4)c(C(F)(F)F)c3)cc2)cc1C(F)(F)F` (repeat unit), the glass transition temperature was 192.00 °C. `*Oc1ccc(S(=O)(=O)c2ccc(OC3(F)C(*)(F)C(F)(F)C3(F)F)cc2)cc1` (repeat unit) came in with a glass transition temperature of 162.20 °C. For `*c1c(F)c(F)c(-c2c(F)c(F)c(Oc3ccc(-c4nn(*)c(=O)c5ccccc45)c(F)c3)c(F)c2F)c(F)c1F` (repeat unit) the value was 253.00 °C; for `*c1cc(C(c2ccc(OCCN(C)c3ccc(/C=C/C4=CC(=C(/C#N)C(=O)OCCc5ccccc5)/CC(C)(C)C4)cc3)c(N3C(=O)c4ccc(Oc5ccc6c(c5)C(=O)N(*)C6=O)cc4C3=O)c2)(C(F)(F)F)C(F)(F)F)ccc1OCCN(c1ccccc1)c1ccc(/C=C/C2=CC(=C(/C#N)C(=O)OCCc3ccccc3)/CC(C)(C)C2)cc1` (repeat unit), 177.00 °C; for `*c1cc(C(c2ccc(OCCN(C)c3ccc(/C=C/C4=CC(=C(/C#N)S(C)(=O)=O)/CC(C)(C)C4)cc3)c(N3C(=O)c4ccc(Oc5ccc6c(c5)C(=O)N(*)C6=O)cc4C3=O)c2)(C(F)(F)F)C(F)(F)F)ccc1OCCN(C)c1ccc(/C=C/C2=CC(=C(/C#N)S(C)(=O)=O)/CC(C)(C)C2)cc1` (repeat unit), 225.00 °C. For `*c1cc(C(c2ccc(OCCN(c3ccccc3)c3ccc(/C=C/C4=CC(=C(/C#N)S(C)(=O)=O)/CC(C)(C)C4)cc3)c(N3C(=O)c4ccc(Oc5ccc6c(c5)C(=O)N(*)C6=O)cc4C3=O)c2)(C(F)(F)F)C(F)(F)F)ccc1OCCN(c1ccccc1)c1ccc(/C=C/C2=CC(=C(/C#N)S(C)(=O)=O)/CC(C)(C)C2)cc1` (repeat unit), the glass transition temperature was determined as 234.00 °C.

Compound `*c1ccc(-c2ccc(Oc3ccc(C4(C)CC(C)(C)c5ccc(Oc6ccc(-c7ccc(-n8c(=O)c9cc%10c(=O)n(*)c(=O)c%10cc9c8=O)cc7)cc6C(F)(F)F)cc54)cc3)c(C(F)(F)F)c2)cc1` (repeat unit) registered a glass transition temperature of 265.00 °C.

`*c1ccc(Cc2ccc(N3C(=O)C(Cl)=C(Oc4ccc(C(C)(C)c5ccc(OC6=C(Cl)C(=O)N(*)C6=O)cc5)cc4)C3=O)cc2)cc1` (repeat unit) returned a glass transition temperature of 172.00 °C.

With `*c1ccc(OCCCCCCN(CC)c2ccc(C(C#N)=C(C#N)C#N)cc2)c(-c2cc(-c3ccccc3)c3cc(Oc4ccc5nc(*)cc(-c6ccccc6)c5c4)ccc3n2)c1` (repeat unit), the glass transition temperature stood at 175.00 °C.

Take `*c1ccc(Oc2cc3ccccc3cc2Oc2ccc(-n3c(=O)c4cc5c(=O)n(*)c(=O)c5cc4c3=O)cc2)cc1` (repeat unit): the glass transition temperature was 316.00 °C. For the compound `*c1ccc(Oc2ccc(-c3cc(-c4ccccc4)c4cc(-c5ccc6nc(*)cc(-c7ccccc7)c6c5)ccc4n3)cc2)cc1` (repeat unit), the glass transition temperature came out at 305.00 °C.

In turn, `*c1ccc(Oc2ccc(-c3cc(-c4ccccc4)c4cc(C5(c6ccc7nc(*)cc(-c8ccccc8)c7c6)c6ccccc6-c6ccccc65)ccc4n3)cc2)cc1` (repeat unit) returned a glass transition temperature of 315.00 °C. The compound `*c1ccc(Oc2ccc(-c3cc(-c4ccccc4)c4cc5c(-c6ccccc6)cc(*)nc5cc4n3)cc2)cc1` (repeat unit) registered a glass transition temperature of 380.50 °C. Compound `*c1ccc(Oc2ccc(-c3cc(-c4ccccc4)c4cc5nc(*)cc(-c6ccccc6)c5cc4n3)cc2)cc1` (repeat unit) gave a glass transition temperature of 365.00 °C.

`*c1ccc(Oc2ccc(-c3ccc(-c4ccc(-c5ccc(Oc6ccc(-c7c8c(c(*)c9ccccc79)C(=O)N(c7ccccc7)C8=O)cc6)c(C(F)(F)F)c5)cc4)cc3)cc2C(F)(F)F)cc1` (repeat unit) yielded a glass transition temperature of 334.00 °C. `*c1ccc(Oc2ccc(-c3ccc(-c4ccc(Oc5ccc(-c6c7c(c(*)c8ccccc68)C(=O)N(c6ccccc6)C7=O)cc5)c(C(F)(F)F)c4)cc3)cc2C(F)(F)F)cc1` (repeat unit) registered a glass transition temperature of 317.00 °C.

Take `*c1ccc(Oc2ccc(-c3ccc(Oc4ccc(-c5nnc(*)c6c(-c7ccc(F)cc7)c(-c7ccc(F)cc7)c(-c7ccc(F)cc7)c(-c7ccc(F)cc7)c56)cc4)cc3)cc2)cc1` (repeat unit): the glass transition temperature is 320.00 °C.

Take `*c1ccc(Oc2ccc(C(C)(C)c3ccc(Oc4ccc(-c5ccc(*)s5)cc4C(F)(F)F)cc3)cc2)c(C(F)(F)F)c1` (repeat unit): the glass transition temperature was 130.00 °C. For `*c1ccc(Oc2ccc(N3C(=O)C(Cl)=C(Oc4ccc(C(C)(C)c5ccc(OC6=C(Cl)C(=O)N(*)C6=O)cc5)cc4)C3=O)cc2)cc1` (repeat unit) the value was 175.00 °C; for `*c1ccc(Oc2ccc(P(=O)(c3ccccc3)c3ccc(Oc4ccc(-c5cc(*)[nH]n5)cc4)cc3)cc2)cc1` (repeat unit), 296.00 °C; for `*c1ccc(Oc2ccc(P(=O)(c3ccccc3)c3ccc(Oc4ccc(-c5cc(*)n(-c6ccccc6)n5)cc4)cc3)cc2)cc1` (repeat unit), 239.00 °C.

On to `*c1ccc2c(c1)C(=O)N(c1cc(N3C(=O)c4ccc(C(*)(C(F)(F)F)C(F)(F)F)cc4C3=O)ccc1OCCCCCCOc1ccc(-c3ccc(OCC)cc3)cc1)C2=O` (repeat unit), for which the glass transition temperature came to 150.30 °C. Consider `*c1ccc2c(c1)C(=O)N(c1cc(N3C(=O)c4ccc(C(*)(C(F)(F)F)C(F)(F)F)cc4C3=O)ccc1OCCCCCCOc1ccc(/N=N/c3ccc(OCC)cc3)cc1)C2=O` (repeat unit), for which the glass transition temperature came out at 198.00 °C. `*c1cccc(P(=O)(c2ccccc2)c2cccc(N3C(=O)c4ccc(NC(=O)OCCOc5ccc(C(C)(C)c6ccc(OCCOC(=O)Nc7ccc8c(c7)C(=O)N(*)C8=O)cc6)cc5)cc4C3=O)c2)c1` (repeat unit): the glass transition temperature worked out at 220.00 °C. For the compound `*c1cccc(P(C)(=O)c2cccc(N3C(=O)c4ccc(NC(=O)OCCOc5ccc(C(C)(C)c6ccc(OCCOC(=O)Nc7ccc8c(c7)C(=O)N(*)C8=O)cc6)cc5)cc4C3=O)c2)c1` (repeat unit), the glass transition temperature is 211.00 °C.

The values above are taken from the PolyMetriX glass transition set.
